How the values were obtained:
Type in all cases: in vivo
[1] = system: Pseudoperonospora cubensis; assay: Test A: cucumber downy mildew, spray the day before inoculation (disease rating, 100 = 100% disease control); settings: spray the day before inoculation, compounds without asterisk (not 40 or 10 ppm)
Excerpt: The test compounds were first dissolved in acetone in an amount equal to 3% of the final volume and then suspended at the desired concentration (in ppm) in acetone and purified water (50/50 mix by volume) containing 250 ppm of the surfactant Trem® 014 (polyhydric alcohol esters). The resulting test suspensions were then used in tests A-E. Spraying a 200 ppm test suspension to the point of run-off on the test plants was the equivalent of a rate of 500 g/ha.
The test suspension was sprayed to the point of run-off on cucumber seedlings. The following day the seedlings were inoculated with a spore suspension of Pseudoperonospora cubensis (the causal agent of cucumber downy mildew) and incubated in a saturated atmosphere at 20° C. for 24 h, and then moved to a growth chamber at 20° C. for 6 days, after which disease ratings were made.
Results for Tests A-F are given in Table A. In the table, a rating of 100 indicates 100% disease control and a rating of 0 indicates no disease control (relative to the controls). A dash (-) indicates no test results.

Plasmopara viticola = assay: Test B: grape downy mildew, spray 24 h after inoculation (disease rating, 100 = 100% disease control); settings: spray 24 h after inoculation
How it was run: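 Grape seedlings were inoculated with Plasmopara viticola and held 24 h saturated at 20 °C, then sprayed to run-off with compound suspension (acetone/water with 250 ppm Trem 014; 200 ppm ≈ 500 g/ha). After 5 days at 20 °C and 24 h saturation, disease was rated from 0 to 100% control versus untreated.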

Phytophthora infestans [2] = assay: whole plant or invertebrate; settings: tomato late blight, spray the day before inoculation
[3] = system: Erysiphe graminis f. sp. tritici; assay: Test E: wheat powdery mildew, spray the day before inoculation (disease rating, 100 = 100% disease control); settings: spray the day before inoculation
How it was run: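 Wheat seedlings sprayed to run-off with compound suspended in acetone/water 50/50 with 250 ppm Trem 014 (200 ppm equivalent to 500 g/ha); inoculated next day with Erysiphe graminis f. sp. tritici spore dust. Kept 7 days at 20° C, then rated 0–100% disease control versus controls.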

[4] = system: Pseudoperonospora cubensis; assay: Test F: cucumber downy mildew, DMSO/acetone/water test suspension, spray the day before inoculation (disease rating, 100 = 100% disease control); settings: DMSO/acetone/water suspension, spray the day before inoculation, compounds without asterisk
How it was run: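 Compounds in DMSO (4% of final volume) suspended in 30/70 acetone/water and sprayed on cucumber seedlings; 250 ppm corresponds to 250 g/ha. Spore inoculation the next day, 24 h saturated humidity at 20° C., then 6 days at 20° C. Rating 0–100 is disease control relative to controls.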

Phytophthora infestans [5] = assay: whole plant or invertebrate; settings: tomato late blight; spray 17 h after inoculation; tested at 40 ppm
[6] = compounds without asterisk (not 40 or 10 ppm)

Molecule | Test A disease rating (100 = 100% disease control, 0 = no disease control) [1] | Test B disease rating (100 = 100% disease control, 0 = no disease control) (Plasmopara viticola; [6]) | Test C disease rating (100 = 100% disease control, 0 = no disease control) (Phytophthora infestans [2]; [6]) | Test E disease rating (100 = 100% disease control, 0 = no disease control) [3, 6] | Test F disease rating (100 = 100% disease control, 0 = no disease control) [4] | Test B disease rating (100 = 100% disease control, 0 = no disease control) (Plasmopara viticola; tested at 40 ppm) | Test C disease rating (100 = 100% disease control, 0 = no disease control) (Phytophthora infestans [2]; tested at 40 ppm) | Test D disease rating (100 = 100% disease control, 0 = no disease control) (Phytophthora infestans [5]) | Test E disease rating (100 = 100% disease control, 0 = no disease control) ([3]; tested at 40 ppm)
2-[1-[(2,5-dimethylphenyl)acetyl]-4-piperidinyl]-N-methyl-N-[(1R)-1-phenylpropyl]-4-oxazolecarboxamide [Compound 154] | 0% | 20% | 0% | 0% | 95% |  |  |  | 
2-[1-[(3,5-diethyl-1H-pyrazol-1-yl)acetyl]-4-piperidinyl]-N-methyl-N-[(1R)-1,2,3,4-tetrahydro-1-naphthalenyl]-4-thiazolecarboxamide [Compound 209] | 100% | 76% | 98% | 0% | 99% |  |  |  | 
2-[1-[[5-ethyl-3-(trifluoromethyl)-1H-pyrazol-1-yl]acetyl]-4-piperidinyl]-N-methyl-N-[(1R)-1,2,3,4-tetrahydro-1-naphthalenyl]-4-thiazolecarboxamide [Compound 208] | 100% | 95% | 100% | 0% | 99% |  |  |  | 
Cc1ccccc1CC(=O)N1CCC(c2nc(C(=O)N(C)[C@H](C)c3ccccc3)cs2)CC1 [Compound 11] | 0% | 31% | 91% | 0% | 97% |  |  |  | 
Cc1cc(C(F)(F)F)nn1CC(=O)N1CCC(c2nc(C(=O)N(C)C3c4ccccc4CCC3(C)C)cs2)CC1 (centres unmarked) [Compound 236] | 97% | 61% | 62% | 0% |  | 100% | 100% | 99% | 0%
C[C@H](c1ccccc1)N(C)C(=O)c1csc(C2CCN(C(=O)Cc3ccc(F)c(Cl)c3)CC2)n1 [compound 35] | 88% | 66% | 93% | 0% | 97% |  |  |  | 
Cc1cccc(CC(=O)N2CCC(c3nc(C(=O)N(C)[C@H](C)c4ccccc4)cs3)CC2)c1 [compound 36] | 100% | 99% | 100% | 91% | 95% |  |  |  | 
C[C@H](c1ccccc1)N(C)C(=O)c1csc(C2CCN(C(=O)Cc3ccc(F)c(F)c3)CC2)n1 [compound 38] | 0% | 45% | 0% | 55% | 43% |  |  |  | 
C[C@H](c1ccccc1)N(C)C(=O)c1csc(C2CCN(C(=O)Cc3cc(C(F)(F)F)ccc3Cl)CC2)n1 [compound 39] | 100% | 100% | 100% | 85% | 100% |  |  |  | 
COc1ccccc1CC(=O)N1CCC(c2nc(C(=O)N(C)[C@H](C)c3ccccc3)cs2)CC1 [compound 41] | 100% | 94% | 100% | 0% | 82% |  |  |  | 
C[C@H](c1ccccc1)N(C)C(=O)c1csc(C2CCN(C(=O)Cc3cc(F)ccc3F)CC2)n1 [compound 44] | 97% | 57% | 98% | 21% | 0% |  |  |  | 
Cc1ccc(C)c(CC(=O)N2CCC(c3nc(C(=O)N(C)[C@H](C)c4ccccc4)cs3)CC2)c1 [compound 47] | 100% | 100% | 100% | 96% | 100% |  |  |  | 
C[C@H](c1ccccc1)N(C)C(=O)c1csc(C2CCN(C(=O)Nc3cccc(C(F)(F)F)c3)CC2)n1 [compound 156] | 100% |  | 62% | 21% | 100% |  |  |  | 
CN(CCc1ccccc1)C(=O)c1csc(C2CCN(C(=O)Cc3ccccc3Cl)CC2)n1 [compound 162] | 0% | 14% | 15% | 42% | 43% |  |  |  | 
N-methyl-2-[1-[[5-methyl-3-(trifluoromethyl)-1H-pyrazol-1-yl]acetyl]-4-piperidinyl]-N-[(1R,2S)-1,2,3,4-tetrahydro-2-methyl-1-naphthalenyl]-4-thiazolecarboxamide [Compound 234] | 100% | 100% | 100% | 21% |  | 100% | 100% | 99% | 0%
N-methyl-2-[1-[[5-methyl-3-(trifluoromethyl)-1H-pyrazol-1-yl]acetyl]-4-piperidinyl]-N-[(1R,4R)-1,2,3,4-tetrahydro-4-hydroxy-1-naphthalenyl]-4-thiazolecarboxamide [Compound 206] | 99% | 5% | 31% | 0% |  |  |  |  | 
N-methyl-2-[1-[[5-methyl-3-(trifluoromethyl)-1H-pyrazol-1-yl]acetyl]-4-piperidinyl]-N-[(1R,4S)-1,2,3,4-tetrahydro-4-hydroxy-1-naphthalenyl]-4-thiazolecarboxamide [Compound 191] | 97% | 17% | 90% | 0% |  |  |  |  | 
N-methyl-2-[4-[[5-methyl-3-(trifluoromethyl)-1H-pyrazol-1-yl]acetyl]-1-piperazinyl]-N-[(1R)-1,2,3,4-tetrahydro-1-naphthalenyl]-4-thiazolecarboxamide [Compound 220] | 0% | 0% | 0% | 0% |  |  |  |  | 

From patent US8586611B2 (priority 2005, dated 2013)
